Source: paper PMC12030059, “Mechanistic Advances in the Therapeutic Application of Bixin for Lung Inflammation In Vitro and In Vivo” (Pharmaceuticals, 2025)

Legend:
[1] = PAMPA-GIT permeability assay; assay type: in vitro ADME; conditions: for Experimental Fa: absorbed fraction; for Papp: read-out: Experimental Pe; for Classification (intestinal permeability): by absorbed fraction
Source text: The parallel artificial membrane permeability assay (PAMPA) utilizes a 96-well plate system in a “sandwich” format, where one plate is positioned above another (PAMPA). The upper plate, known as the donor compartment, contains the compounds (test or control) dissolved in a buffered solution. […] The lipid composition of the PVDF filter varies depending on the type of permeability test. For gastrointestinal tract (GIT) permeability assessments, L-α-soy phosphatidylcholine in dodecane is used. Optical density values are measured at specified wavelengths for each compound and compared against controls. For GIT permeability, the absorbed fraction (Fa%) and permeability (Pe) are determined. […] Compounds for these assays were diluted from a 10 mM stock solution. These assays were conducted using a 1 mg/mL stock solution per compound.

[2] = ref C. Zhu et al. Eur. J. Med. Chem. 37 (2002) 399–407 [22], cited from earlier work
[3] = L-α-soy phosphatidylcholine in dodecane

Row | Experimental Pe [1, 3] | Experimental Fa [1] [%] | Papp [1, 3] [×10⁻⁶ cm/s] | Classification (intestinal permeability) [1] | SMILES | Literature Fa ([2]; absorbed fraction) [%] | Literature Pe ([2]; artificial membrane permeability)
1 | 0.36 10^−6 cm/s | 12.64 | – | – | Nc1nc2c(ncn2COCCO)c(=O)[nH]1 [Acyclovir, acyclovir] | – | –
2 | – | 18.19 | 0.53 | Low (low (0–29%)) | CO/N=C(\C(=O)N[C@@H]1C(=O)N2C(C(=O)O)=C(CSc3nc(=O)c(=O)[nH]n3C)CS[C@H]12)c1csc(N)n1 [Ceftriaxone, ceftriaxone] | 1 | 0.1 10^−6 cm/s
3 | – | 99.99 | 25.2 | High (high (70–100%)) | O=c1ccc2ccccc2o1 [Coumarin, coumarin] | – | –
4 | – | – | 1.56 | Medium (medium (30–69%)) | CCn1cc(C(=O)O)c(=O)c2cc(F)c(N3CCNCC3)cc21 [Norfloxacin, norfloxacin] | – | –
